Test results from PubChem BioAssay (NCI).
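Cultured in 96-well plates, cells were exposed to test compound for 48 hours across five concentrations. Here, GI50 denotes the concentration required for 50% inhibition of growth. Definition used: TGI = concentration required for complete inhibition of growth.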

Tests used:
Experiment in all cases: DTP human tumour cell line panel, 48 h
U251 CNS = test system: U251 CNS
MALME-3M melanoma = test system: MALME-3M melanoma
HCC-2998 colon = test system: HCC-2998 colon
SF-295 CNS = test system: SF-295 CNS
SK-MEL-28 melanoma = test system: SK-MEL-28 melanoma
786-0 renal = test system: 786-0 renal
SR leukemia = test system: SR leukemia
MOLT-4 leukemia = test system: MOLT-4 leukemia
MCF7 breast = test system: MCF7 breast
IGROV1 ovarian = test system: IGROV1 ovarian
SK-MEL-5 melanoma = test system: SK-MEL-5 melanoma
CCRF-CEM leukemia = test system: CCRF-CEM leukemia
COLO 205 colon = test system: COLO 205 colon
RPMI-8226 leukemia = test system: RPMI-8226 leukemia
NCI-H460 lung = test system: NCI-H460 lung
HCT-116 colon = test system: HCT-116 colon
MDA-MB-231 breast = test system: MDA-MB-231 breast
SK-OV-3 ovarian = test system: SK-OV-3 ovarian
K-562 leukemia = test system: K-562 leukemia
A549 NSCLC = test system: A549 NSCLC
SW-620 colon = test system: SW-620 colon
SN12C renal = test system: SN12C renal
PC-3 prostate = test system: PC-3 prostate
M14 melanoma = test system: M14 melanoma
LOX IMVI melanoma = test system: LOX IMVI melanoma
CAKI-1 renal = test system: CAKI-1 renal
T-47D breast = test system: T-47D breast
KM12 colon = test system: KM12 colon
BT-549 breast = test system: BT-549 breast
NCI-H226 lung = test system: NCI-H226 lung
SK-MEL-2 melanoma = test system: SK-MEL-2 melanoma
HCT-15 colon = test system: HCT-15 colon
NCI-H23 lung = test system: NCI-H23 lung
UACC-257 melanoma = test system: UACC-257 melanoma
HT29 colon = test system: HT29 colon
HOP-62 NSCLC = test system: HOP-62 NSCLC
SNB-19 CNS = test system: SNB-19 CNS
NCI/ADR-RES ovarian = test system: NCI/ADR-RES ovarian
UO-31 renal = test system: UO-31 renal
MDA-MB-435 = test system: MDA-MB-435
HS 578T breast = test system: HS 578T breast
SF-268 CNS = test system: SF-268 CNS
TK-10 renal = test system: TK-10 renal
ACHN renal = test system: ACHN renal
OVCAR-5 ovarian = test system: OVCAR-5 ovarian
OVCAR-4 ovarian = test system: OVCAR-4 ovarian
HOP-92 NSCLC = test system: HOP-92 NSCLC
NCI-H522 lung = test system: NCI-H522 lung
UACC-62 melanoma = test system: UACC-62 melanoma
HL-60(TB) leukemia = test system: HL-60(TB) leukemia
OVCAR-8 ovarian = test system: OVCAR-8 ovarian
SF-539 CNS = test system: SF-539 CNS
SNB-75 CNS = test system: SNB-75 CNS
A498 renal = test system: A498 renal
RXF 393 renal = test system: RXF 393 renal
DU-145 prostate = test system: DU-145 prostate
EKVX NSCLC = test system: EKVX NSCLC

Structure (SMILES): O=C(NNc1nc2cc(F)c(F)cc2n2c(CN3CC4CNCC4C3)ccc12)c1ncccn1 (stereo not drawn)
- GI50 (U251 CNS): 1.9 µM
- TGI (U251 CNS): 14.6 µM
- GI50 (MALME-3M melanoma): 2.53 µM
- GI50 (HCC-2998 colon): 4.14 µM
- TGI (HCC-2998 colon): 19.3 µM
- GI50 (SF-295 CNS): 0.847 µM
- TGI (SF-295 CNS): 12.5 µM
- GI50 (SK-MEL-28 melanoma): 2.83 µM
- TGI (SK-MEL-28 melanoma): 14.8 µM
- GI50 (786-0 renal): 2.18 µM
- TGI (786-0 renal): 9.02 µM
- GI50 (SR leukemia): 1.53 µM
- TGI (SR leukemia): > 100 µM
- GI50 (MOLT-4 leukemia): 3.14 µM
- TGI (MOLT-4 leukemia): > 100 µM
- GI50 (MCF7 breast): 3.07 µM
- TGI (MCF7 breast): 14 µM
- GI50 (IGROV1 ovarian): 1.85 µM
- TGI (IGROV1 ovarian): 12.3 µM
- GI50 (SK-MEL-5 melanoma): 1.65 µM
- TGI (SK-MEL-5 melanoma): 4.4 µM
- GI50 (CCRF-CEM leukemia): 1.86 µM
- TGI (CCRF-CEM leukemia): > 100 µM
- GI50 (COLO 205 colon): 2.81 µM
- TGI (COLO 205 colon): 11.8 µM
- GI50 (RPMI-8226 leukemia): 3.69 µM
- TGI (RPMI-8226 leukemia): 55.7 µM
- GI50 (NCI-H460 lung): 0.567 µM
- TGI (NCI-H460 lung): 6.99 µM
- GI50 (HCT-116 colon): 1.6 µM
- TGI (HCT-116 colon): 14.5 µM
- GI50 (MDA-MB-231 breast): 3.64 µM
- TGI (MDA-MB-231 breast): 21 µM
- GI50 (SK-OV-3 ovarian): 1.96 µM
- TGI (SK-OV-3 ovarian): 14.8 µM
- GI50 (K-562 leukemia): 2.4 µM
- TGI (K-562 leukemia): 74.5 µM
- GI50 (A549 NSCLC): 2.82 µM
- TGI (A549 NSCLC): 13.2 µM
- GI50 (SW-620 colon): 2.48 µM
- TGI (SW-620 colon): 16.1 µM
- GI50 (SN12C renal): 3.06 µM
- TGI (SN12C renal): 13.8 µM
- GI50 (PC-3 prostate): 3.22 µM
- TGI (PC-3 prostate): 39.6 µM
- GI50 (M14 melanoma): 1.14 µM
- TGI (M14 melanoma): 9.42 µM
- GI50 (LOX IMVI melanoma): 1.06 µM
- TGI (LOX IMVI melanoma): 5.21 µM
- GI50 (CAKI-1 renal): 0.756 µM
- TGI (CAKI-1 renal): 11.9 µM
- GI50 (T-47D breast): 3.08 µM
- TGI (T-47D breast): 14.2 µM
- GI50 (KM12 colon): 3.18 µM
- TGI (KM12 colon): 22.8 µM
- GI50 (BT-549 breast): 4.47 µM
- TGI (BT-549 breast): 18.7 µM
- GI50 (NCI-H226 lung): 2.77 µM
- TGI (NCI-H226 lung): 18.1 µM
- GI50 (SK-MEL-2 melanoma): 4.23 µM
- TGI (SK-MEL-2 melanoma): 20.7 µM
- GI50 (HCT-15 colon): 0.526 µM
- TGI (HCT-15 colon): 25.1 µM
- GI50 (NCI-H23 lung): 3.48 µM
- TGI (NCI-H23 lung): 16.2 µM
- GI50 (UACC-257 melanoma): 2.8 µM
- TGI (UACC-257 melanoma): 9.36 µM
- GI50 (HT29 colon): 3.76 µM
- TGI (HT29 colon): 32.2 µM
- GI50 (HOP-62 NSCLC): 1.04 µM
- TGI (HOP-62 NSCLC): 11.2 µM
- GI50 (SNB-19 CNS): 3.53 µM
- TGI (SNB-19 CNS): 29.1 µM
- GI50 (NCI/ADR-RES ovarian): 5.29 µM
- TGI (NCI/ADR-RES ovarian): 22.7 µM
- GI50 (UO-31 renal): 0.448 µM
- TGI (UO-31 renal): 10.1 µM
- GI50 (MDA-MB-435): 3.85 µM
- TGI (MDA-MB-435): 16.4 µM
- GI50 (HS 578T breast): 5.98 µM
- TGI (HS 578T breast): 37 µM
- GI50 (SF-268 CNS): 1.87 µM
- TGI (SF-268 CNS): 14.8 µM
- GI50 (TK-10 renal): 7.89 µM
- TGI (TK-10 renal): 29.7 µM
- GI50 (ACHN renal): 0.512 µM
- TGI (ACHN renal): 10.7 µM
- GI50 (OVCAR-5 ovarian): 5.08 µM
- TGI (OVCAR-5 ovarian): 25.4 µM
- GI50 (OVCAR-4 ovarian): 2.8 µM
- TGI (OVCAR-4 ovarian): 17.9 µM
- GI50 (HOP-92 NSCLC): 6.46 µM
- TGI (HOP-92 NSCLC): 28.3 µM
- GI50 (NCI-H522 lung): 4.37 µM
- TGI (NCI-H522 lung): 21.2 µM
- GI50 (UACC-62 melanoma): 2.57 µM
- TGI (UACC-62 melanoma): 11.6 µM
- GI50 (HL-60(TB) leukemia): 2.62 µM
- TGI (HL-60(TB) leukemia): 10.7 µM
- GI50 (OVCAR-8 ovarian): 2.18 µM
- TGI (OVCAR-8 ovarian): 12.8 µM
- GI50 (SF-539 CNS): 2.76 µM
- TGI (SF-539 CNS): 9.5 µM
- GI50 (SNB-75 CNS): 2.19 µM
- TGI (SNB-75 CNS): 13.6 µM
- GI50 (A498 renal): 2.36 µM
- TGI (A498 renal): 8.64 µM
- GI50 (RXF 393 renal): 2 µM
- TGI (RXF 393 renal): 9.33 µM
- GI50 (DU-145 prostate): 2.31 µM
- TGI (DU-145 prostate): 16.1 µM
- GI50 (EKVX NSCLC): 1.79 µM
- TGI (EKVX NSCLC): 17.7 µM
